Values joined by “and” are separate entries in the source; they are usually repeats but may differ in a detail not shown here. Identical values can stand only once.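 Assay format: 96-well plates, 48-hour exposure. GI50 = concentration required for 50% inhibition of growth.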 Active and inactive are the calls of the source. No stated cut-off is given here; in the data, active = GI50 up to about 1.1 µM and inactive = higher.
What was measured:
Experiment in all cases: DTP human tumour cell line panel, 48 h
HCT-116 = system: HCT-116
RPMI-8226 = system: RPMI-8226
M14 = system: M14
SF-268 = system: SF-268
SF-295 = system: SF-295
U-251 = system: U-251
Malme-3M = system: Malme-3M
SF-539 = system: SF-539
HL-60 = system: HL-60
BT-549 = system: BT-549
DU-145 = system: DU-145
HCT-15 = system: HCT-15
SK-OV-3 = system: SK-OV-3
NCI-H460 = system: NCI-H460
MDA-MB-231 = system: MDA-MB-231
SK-MEL-28 = system: SK-MEL-28
PC-3 = system: PC-3
SR = system: SR
SNB-75 = system: SNB-75
SK-MEL-2 = system: SK-MEL-2

Structure (SMILES) | GI50 (HCT-116) | GI50 (RPMI-8226) | GI50 (M14) | GI50 (SF-268) | GI50 (SF-295) | GI50 (U-251) | GI50 (Malme-3M) | GI50 (SF-539) | GI50 (HL-60) | GI50 (BT-549) | GI50 (DU-145) | GI50 (HCT-15) | GI50 (SK-OV-3) | GI50 (NCI-H460) | GI50 (MDA-MB-231) | GI50 (SK-MEL-28) | GI50 (PC-3) | GI50 (SR) | GI50 (SNB-75) | GI50 (SK-MEL-2)
COC1=CC(=O)C2=C(C[C@@]3(C)C(=C2)C(CO)=CC[C@H]3O)C1=O | 18.7 µM (inactive) | 18.4 µM (inactive) | 21.8 µM (inactive) | 18.7 µM (inactive) | 22 µM (inactive) | 21 µM (inactive) | 34.2 µM (inactive) | 18.8 µM (inactive) | 1.79 µM (inactive) | 19.2 µM (inactive) | 38.9 µM (inactive) | 27.5 µM | 88.5 µM (inactive) | 25.9 µM (inactive) | 3.86 µM (inactive) | 29.6 µM (inactive) | 28.2 µM (inactive) |  |  | 
O=c1[nH]nc(N/N=C\c2ccc(Cl)cc2)c2ccccc12 | 28.2 µM (inactive) | 25.7 µM (inactive) | 18.7 µM (inactive) | 23.2 µM (inactive) | 18.5 µM (inactive) | 20.5 µM (inactive) | 22 µM (inactive) | 21.4 µM (inactive) | > 100 µM (inactive) |  | 21.9 µM (inactive) | 17.9 µM | 18.5 µM (inactive) | 20.3 µM (inactive) | 22.3 µM (inactive) | 23.3 µM (inactive) | 17.2 µM (inactive) | 3.9 µM (inactive) | 22.6 µM (inactive) | 17.2 µM (inactive)
CC(C(O)c1ccccc1)[N+](=O)[O-] (configuration not stated) | 37.6 µM (inactive) | 2.9 µM (inactive) | 6.43 µM (inactive) | 31.5 µM (inactive) | 28.5 µM (inactive) | 16.6 µM (inactive) | 21.7 µM (inactive) | 20.3 µM (inactive) | 4.79 µM (inactive) |  | 12.7 µM (inactive) | 11.5 µM |  | 35.2 µM (inactive) | 26.5 µM (inactive) | 19.8 µM (inactive) | 22.6 µM (inactive) | 2.68 µM (inactive) | 40.6 µM (inactive) | 19.5 µM (inactive)
CN(CC(=O)O)c1ncc2c(n1)-c1ccccc1OC2 | > 100 µM (inactive) | > 100 µM (inactive) | > 100 µM (inactive) | > 100 µM (inactive) | > 100 µM (inactive) | > 100 µM (inactive) | > 100 µM (inactive) | > 100 µM (inactive) | > 100 µM (inactive) |  | > 100 µM (inactive) | > 100 µM |  | > 100 µM (inactive) | > 100 µM (inactive) | > 100 µM (inactive) | > 100 µM (inactive) | > 100 µM (inactive) | > 100 µM (inactive) | > 100 µM (inactive)
NC12CC3CC4C1CC1CC2C(C3)C4(N)C1 | > 100 µM (inactive) |  | > 100 µM (inactive) | > 100 µM (inactive) | > 100 µM (inactive) | > 100 µM (inactive) | > 100 µM (inactive) |  | > 100 µM (inactive) | > 100 µM (inactive) | > 100 µM (inactive) | > 100 µM | > 100 µM (inactive) | > 100 µM (inactive) | > 100 µM (inactive) | > 100 µM (inactive) | > 100 µM (inactive) |  |  | > 100 µM (inactive)
COc1cc2c(cc1OC)C(c1ccccc1CCCCl)=NCC2 | 45.9 µM (inactive) | 14.3 µM (inactive) | > 100 µM (inactive) | 58.2 µM (inactive) | 68.7 µM (inactive) | 8.07 µM (inactive) |  | > 100 µM (inactive) | 28.8 µM (inactive) | 38.3 µM (inactive) | > 100 µM (inactive) | > 100 µM | > 100 µM (inactive) | 48.6 µM (inactive) | > 100 µM (inactive) | 19.1 µM (inactive) | 49.9 µM (inactive) |  | 75.3 µM (inactive) | > 100 µM (inactive)
Cc1csc(NNC(=O)Nc2ccccc2)n1 | > 100 µM (inactive) | > 100 µM (inactive) | > 100 µM (inactive) | > 100 µM (inactive) | > 100 µM (inactive) | > 100 µM (inactive) | > 100 µM (inactive) | > 100 µM (inactive) | > 100 µM (inactive) |  | > 100 µM (inactive) | > 100 µM | > 100 µM (inactive) | > 100 µM (inactive) | > 100 µM (inactive) | > 100 µM (inactive) | > 100 µM (inactive) | > 100 µM (inactive) | > 100 µM (inactive) | > 100 µM (inactive)
Cc1cc2[nH]c3c(C#N)c(-c4ccccc4)c(/C=N/c4ccc(Cl)cc4)c(=O)n3c2cc1C | > 100 µM (inactive) | > 100 µM (inactive) | > 100 µM (inactive) | > 100 µM (inactive) | > 100 µM (inactive) | > 100 µM (inactive) | > 100 µM (inactive) | > 100 µM (inactive) |  | > 100 µM (inactive) |  | > 100 µM | > 100 µM (inactive) | > 100 µM (inactive) | > 100 µM (inactive) | > 100 µM (inactive) | > 100 µM (inactive) |  | > 100 µM (inactive) | > 100 µM (inactive)
O=C1c2ccccc2-c2c1c(-c1ccccc1)c1n2C2(C(=O)c3ccccc3C2=O)C2C(=O)N(c3ccccc3)C(=O)C12 (configuration not stated) | 17.9 µM (inactive) |  | 34.1 µM (inactive) | 21.1 µM (inactive) | 34.4 µM (inactive) | 35.9 µM (inactive) | 23.9 µM (inactive) | 15.4 µM (inactive) |  | 17.5 µM (inactive) | 28.5 µM (inactive) | 16.4 µM | 41.9 µM (inactive) | 12 µM (inactive) |  | 28.9 µM (inactive) | 26.6 µM (inactive) |  | 17.3 µM (inactive) | 22.6 µM (inactive)
Cc1ccc(-n2cnc3c(N/N=C4\SCC(=O)N4c4ccccc4)ncnc32)cc1 | 2.63 µM (inactive) | 0.597 µM (active) | 3.66 µM (inactive) | 4.88 µM (inactive) | 13.3 µM (inactive) | 4.72 µM (inactive) | 4.39 µM (inactive) | 1.87 µM (inactive) | 1.41 µM (inactive) | 3.85 µM (inactive) | 4.37 µM (inactive) | 2.3 µM | 14.6 µM (inactive) | 2.9 µM (inactive) | 3.3 µM (inactive) | 2.95 µM (inactive) | 3.3 µM (inactive) |  |  | 2.31 µM (inactive)
Cc1ccc(NC(=O)/C(CC2Nc3c(ccc4c3C(=O)c3ccccc3C4=O)NC2O)=N/NC(C)(C)C)cc1 (configuration not stated) | 12.5 µM (inactive) |  | 18.7 µM (inactive) | 10.4 µM (inactive) | 27.9 µM (inactive) | 14.1 µM (inactive) |  | 7.59 µM (inactive) | 3.97 µM (inactive) | 22 µM (inactive) | 7.36 µM (inactive) | 5.79 µM | 12.8 µM (inactive) | 9.57 µM (inactive) | 3.42 µM (inactive) | 12.1 µM (inactive) | 15.8 µM (inactive) |  | 25.8 µM (inactive) | 18.9 µM (inactive)
[O-][N+]1=[N+]([O-])[C@@H](c2ccccc2)[C@H]1c1ccccc1 | 16.6 µM (inactive) | 4.48 µM (inactive) | 15.8 µM (inactive) | 24.9 µM (inactive) | 19.9 µM (inactive) | 18.6 µM (inactive) | 17.7 µM (inactive) | 18.4 µM (inactive) | 2.05 µM (inactive) |  | 16.3 µM (inactive) | 11.4 µM | 32.3 µM (inactive) | 22.4 µM (inactive) | 20.2 µM (inactive) | 16.6 µM (inactive) | 17.5 µM (inactive) | 18.4 µM (inactive) | 21.3 µM (inactive) | 17.9 µM (inactive)
O=[N+]([O-])c1ccc2c(c1)c(S(=O)(=O)O)cc1nonc12 | > 100 µM (inactive) | > 100 µM (inactive) | > 100 µM (inactive) | > 100 µM (inactive) | > 100 µM (inactive) | > 100 µM (inactive) | > 100 µM (inactive) | > 100 µM (inactive) | > 100 µM (inactive) | > 100 µM (inactive) |  | > 100 µM | > 100 µM (inactive) | > 100 µM (inactive) | > 100 µM (inactive) | > 100 µM (inactive) | > 100 µM (inactive) | > 100 µM (inactive) |  | > 100 µM (inactive)
OC[C@@H](O)[C@H]1NC[C@@H](O)[C@H]1O | > 100 µM (inactive) | > 100 µM (inactive) | > 100 µM (inactive) | > 100 µM (inactive) | > 100 µM (inactive) | > 100 µM (inactive) | > 100 µM (inactive) | > 100 µM (inactive) | > 100 µM (inactive) | > 100 µM (inactive) | > 100 µM (inactive) | > 100 µM | > 100 µM (inactive) | > 100 µM (inactive) |  | > 100 µM (inactive) | > 100 µM (inactive) | > 100 µM (inactive) | > 100 µM (inactive) | 
O=C(/C=C/c1ccccc1)c1ccccn1 |  |  | 14.5 µM (inactive) |  | 24 µM (inactive) and 18.4 µM (inactive) | 14.3 µM (inactive) and 17.9 µM (inactive) |  | 17.8 µM (inactive) |  | 24 µM (inactive) and 18.8 µM (inactive) | 12.4 µM (inactive) and 18.3 µM (inactive) | 11.8 µM and 18.5 µM | 27.4 µM (inactive) and 38.5 µM (inactive) | 16.7 µM (inactive) and 21.3 µM (inactive) |  | 17 µM (inactive) and 26.2 µM (inactive) | 19.1 µM (inactive) and 21.1 µM (inactive) |  | 24.5 µM (inactive) and 16 µM (inactive) | 19.2 µM (inactive)
CCCCCCOC(=O)/C=C/[C@]1(CO)C/C(=C/CC(C(C)C)C(C)C)C(=O)O1 | 13.2 µM (inactive) | 15.7 µM (inactive) | 12.1 µM (inactive) | 10.9 µM (inactive) | 10.4 µM (inactive) |  | 12.2 µM (inactive) |  | 2.7 µM (inactive) | 10.5 µM (inactive) | 18.2 µM (inactive) | 14.6 µM | 18.2 µM (inactive) | 1.74 µM (inactive) |  | 10.4 µM (inactive) | 11.5 µM (inactive) |  | 14.2 µM (inactive) | 16.2 µM (inactive)

From ChEMBL document CHEMBL1201862, “PubChem BioAssay data set” (2004)
